Legend:
ICR mice = test: Oral glucose tolerance test on normal mouse; type: in vivo; conditions: at 30 minutes after glucose loading, relative to control group
Procedure: (2) Oral Glucose Tolerance Test on Normal Mouse
In this assay, preventive activities of test compounds against hyperglycemia following glucose loading were examined using normal mice and nateglinide, a commercially available oral anti-hyperglycemic agent, as a reference compound. The assay procedure is given below.
ICR mice (male, 6 weeks old) that had been preliminary bred for one week were fasted for 18 to 20 hours to use as test animals. Each test compound was dissolved in 0.5% methylcellulose solution and orally administered at 3 mg/kg (10 mg/kg for nateglinide) before glucose loading. Timing to administer the test compound was selected to be optimal for each test compound, which was 10 minutes before glucose loading for the compounds of the present invention or 30 minutes before glucose loading for nateglinide, which was a reference compound. The hypoglycemic rate (%) at 30 minutes after glucose loading was measured relative to the control group.

MIN6B1 cell = test: Assay for promoting activity on insulin secretion; type: cell-based, mouse; conditions: 10 μM test compound, KRB-HEPES with 16.8 mM glucose, 37° C., 22 minutes; relative to DMSO = 100%
Procedure: (1) Assay for Promoting Activity on Insulin Secretion
In this assay, promoting activities on insulin secretion of the test compounds were studied using MIN6B1 cell, which was a strain of mouse pancreatic β-cells, and glibenclamide, which was a commercially available insulin secretagogue, as a reference compound. The assay procedure is given below.
MIN6B1 cells were seeded on a 48-well plate at a concentration of 1×10^5 cells/well (0.25 ml) (The medium was prepared by adding FCS (fetal calf serum) to DMEM (Dulbecco's Modified Eagle Medium) containing 25 mM glucose such that the FCS concentration became 10%). After two days, the medium was suctioned by an aspirator, each well washed four times with 0.2 ml of KRE-HEPES buffer [Kregs-Ringer-bicarbonate-N-2-hydroxyethylpiperazine-N′-2-ethanesulfonic acid; 130 mM NaCl, 4.7 mM KCl, 1.2 mM KH2PO4, 1.2 mM MgCl2.6H2O, 0.25 mM CaCl2.2H2O, 2.5 mM NaHCO3, 0.5% BSA, and 10 mM N-2-hydroxyethylpiperazine-N′-2-ethanesulfonic acid (pH 7.4)] containing 2.8 mM glucose warmed to 37° C., 0.2 ml of said buffer was again added, and the cells were incubated at 37° C. for 30 to 60 minutes. […] The samples were pipetted and diluted by 25 to 51 times, and the insulin concentrations were analyzed using an insulin assay kit (Rat Insulin [^125I] Biotrak Assay System with Magnetic Separation; Amersham BioScience K.K.). […]

Fc1cc(-c2nc(N3CCSC3)c3sccc3n2)c(F)cc1Cl [Example 99]
Hypoglycemic rate, % (ICR mice; 3 mg/kg orally, 10 minutes before glucose loading): 36%

COc1ccc(Cl)cc1C(=O)NCCc1ccc(S(=O)(=O)NC(=O)NC2CCCCC2)cc1 [Glibenclamide, glibenclamide]
Promotion activity on insulin secretion, % (MIN6B1 cell): 122%

CC(C)[C@H]1CC[C@H](C(=O)N[C@H](Cc2ccccc2)C(=O)O)CC1 [Nateglinide, nateglinide]
Hypoglycemic rate, % (ICR mice; 10 mg/kg orally, 30 minutes before glucose loading): 26%

Source: US7557112B2, “Aromatic-ring-fused pyrimidine derivative” (Astellas Pharma Inc., priority 2004, dated 2009)
